In patent US12653794B2, “Dextromethorphan transdermal delivery device” (SHINKEI THERAPEUTICS, INC., priority 2017, dated 2026):

Legend:
[1] = Transdermal flux test, Franz Diffusion Cell method; format: in vitro ADME, human
Experimental: Transdermal flux of Dextromethorphan from the patch was tested using human cadaver epidermis by Franz Diffusion Cell method.
Patch formulations A, B, and C prepared in Example 1 were used for a skin permeation study using the following protocol: • Franz cell assembly—Logan Instruments (6-cell unit) • Each cell has 12 mL volume, 1.5 cm diameter orifice • Receptor medium is a phosphate buffer solution (PBS) pH 7.4 • Cell temperature is maintained at 37° C. • Sampling method: take 1.5 mL for HPLC assay, empty cell, replace with fresh medium • Sampling time points: 4, 8, 12, 24 and 48 hours • Cadaver skin is used and is obtained from New York Fire Fighters Skin Bank. Skin No. MM07116, While, person, skin site: left posterior leg. • Assay method for media: HPLC based.
Formulations D0-D2 were also tested for their in vitro flux characteristics following the same protocol as described in Example 2.

[2] = human, in vivo; cited from earlier work
[3] = Transdermal delivery rate without enhancer
Excerpt: The unpredictability of transdermal administration is notorious. […] Structurally and by calculated Log P, these compounds are very similar, such that this difference could not be anticipated. See, U.S. Provisional Appl. No. 62/568,028, filed Oct. 4, 2017, the content of which is incorporated by reference in its entirety.

SMILES: CCCCCCCCCCCCCC(=O)OC(C)C [IPM, isopropyl myristate]
- effect on flux of dextromethorphan [1]: significant enhancement of flux was observed
- effect on skin permeation of DXM [1]: significantly enhance the skin permeation of DXM

SMILES: COc1ccc2c(c1)[C@]13CCCC[C@@H]1[C@H](C2)N(C)CC3 [dextromethorphan]
- adverse reactions reported with the individual component [2]: drowsiness, dizziness, nervousness or restlessness, nausea, vomiting, and stomach pain

SMILES: C[C@]12CC[C@H]3[C@@H](CCC4=CC(=O)CC[C@@]43C)[C@@H]1CC[C@@H]2O [testosterone]
- transdermal delivery rate relative to beta estradiol [3]: three orders of magnitude higher
